Assay results taken from PubChem BioAssay AID248 (DTP/NCI, 2004).
Inconclusive results and toxic doses are left out. Rule as the data show it: active = T/C of 150% or more; inactive = T/C below 125%.

Test system: L1210 leukemia ip in BDF1 mice, survival T/C
Test: NCI In Vivo Anticancer Drug Screen. Data for tumor model L1210 Leukemia (intraperitoneal) in B6D2F1 (BDF1) mice
Conditions: higher = longer survival
Procedure, shortened: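 Value reflects the ratio of survival in compound-treated mice to survival in vehicle-treated controls, with both groups carrying the same transplanted tumor.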

[1] = endpoint: mean survival time, dose: 25.0 mg/kg/injection, schedule: Q04DX002 (ip), vehicle: Klucel (hydroxypropylcellulose) (HPC)
[2] = endpoint: mean survival time, dose: 50.0 mg/kg/injection, schedule: Q04DX002 (ip), vehicle: Klucel (hydroxypropylcellulose) (HPC)
[3] = endpoint: mean survival time, dose: 100.0 mg/kg/injection, schedule: Q04DX002 (ip), vehicle: Klucel (hydroxypropylcellulose) (HPC)
[4] = endpoint: mean survival time, dose: 100.0 mg/kg/injection, schedule: Q04DX003 (ip), vehicle: Klucel (hydroxypropylcellulose) (HPC)
[5] = endpoint: mean survival time, dose: 200.0 mg/kg/injection, schedule: Q04DX003 (ip), vehicle: Klucel (hydroxypropylcellulose) (HPC)
[6] = endpoint: mean survival time, dose: 400.0 mg/kg/injection, schedule: Q04DX003 (ip), vehicle: Klucel (hydroxypropylcellulose) (HPC)
[7] = endpoint: mean survival time, dose: 100.0 mg/kg/injection, schedule: Q04DX003 (ip), vehicle: saline with Tween-80
[8] = endpoint: mean survival time, dose: 100.0 mg/kg/injection, schedule: Q04DX003 (ip), vehicle: saline
[9] = endpoint: mean survival time, dose: 200.0 mg/kg/injection, schedule: Q04DX003 (ip), vehicle: saline
[10] = endpoint: mean survival time, dose: 100.0 mg/kg/injection, schedule: Q01DX001 (ip), vehicle: saline with Tween-80
[11] = endpoint: mean survival time, dose: 200.0 mg/kg/injection, schedule: Q01DX001 (ip), vehicle: saline with Tween-80
[12] = endpoint: mean survival time, dose: 100.0 mg/kg/injection, schedule: Q01DX001 (ip), vehicle: carboxymethylcellulose (CMC)
[13] = endpoint: mean survival time, dose: 200.0 mg/kg/injection, schedule: Q01DX001 (ip), vehicle: carboxymethylcellulose (CMC)
[14] = endpoint: mean survival time, dose: 400.0 mg/kg/injection, schedule: Q01DX001 (ip), vehicle: carboxymethylcellulose (CMC)
[15] = endpoint: mean survival time, dose: 400.0 mg/kg/injection, schedule: Q04DX003 (ip), vehicle: saline
[16] = endpoint: mean survival time, dose: 200.0 mg/kg/injection, schedule: Q04DX002 (ip), vehicle: Klucel (hydroxypropylcellulose) (HPC)
[17] = endpoint: mean survival time, dose: 400.0 mg/kg/injection, schedule: Q04DX002 (ip), vehicle: Klucel (hydroxypropylcellulose) (HPC)
[18] = endpoint: mean survival time, dose: 200.0 mg/kg/injection, schedule: Q04DX003 (ip), vehicle: saline with Tween-80

Measured: T/C

CCCCCCCCCCCCCCCCNC(=S)NCCCCCCCCCCCCCCCC
inactive: [1] 93 % of control | [2] 90 % of control | [3] 102 % of control | [4] 95 % of control | [5] 101 % of control | [6] 88 % of control

O=C(NCN1CCOCC1)Nc1ccc(Cl)cc1
inactive: endpoint: mean survival time, dose: 25.0 mg/kg/injection, schedule: Q01DX009 (ip), vehicle: gum acacia 100 % of control | endpoint: mean survival time, dose: 50.0 mg/kg/injection, schedule: Q01DX009 (ip), vehicle: gum acacia 91 % of control

COC1OC2COC(c3ccccc3)OC2C(O)C1N (stereo unspecified)
inactive: endpoint: mean survival time, dose: 50.0 mg/kg/injection, schedule: Q04DX003 (ip), vehicle: saline with Tween-80 93 % of control | [7] 98 % of control

O=C(O)CS(=O)(=O)c1ccccc1
inactive: [8] 95 % of control | [9] 105 % of control

C1CNC2CCCC2C1 (stereo unspecified)
inactive: endpoint: mean survival time, dose: 75.0 mg/kg/injection, schedule: Q01DX001 (ip), vehicle: carboxymethylcellulose (CMC) 103 % of control

O=C(NCCCl)NC(Cc1ccccc1)C(=O)O (stereo unspecified)
inactive: [10] 94 % of control | [11] 94 % of control | endpoint: mean survival time, dose: 400.0 mg/kg/injection, schedule: Q01DX001 (ip), vehicle: saline with Tween-80 91 % of control

COc1ccccc1/C=C(/C)C(C)=O
inactive: endpoint: mean survival time, dose: 75.0 mg/kg/injection, schedule: Q04DX003 (ip), vehicle: Klucel (hydroxypropylcellulose) (HPC) 102 % of control | [12] 103 % of control | endpoint: mean survival time, dose: 150.0 mg/kg/injection, schedule: Q04DX003 (ip), vehicle: Klucel (hydroxypropylcellulose) (HPC) 97 % of control | [13] 108 % of control | endpoint: mean survival time, dose: 300.0 mg/kg/injection, schedule: Q04DX003 (ip), vehicle: Klucel (hydroxypropylcellulose) (HPC) 94 % of control | [14] 97 % of control

OCCCNCc1ccccc1
inactive: [8] 94 % of control | [9] 103 % of control | [15] 97 % of control

COc1ccc(C(=O)/C=C/c2cccc(OCc3ccccc3)c2)cc1
inactive: [1] 102 % of control | [2] 91 % of control | [3] 102 % of control | [16] 92 % of control | [17] 103 % of control

CC1=CCCCC1Oc1ccccc1 (stereo unspecified)
inactive: [7] 104 % of control | [18] 96 % of control | endpoint: mean survival time, dose: 400.0 mg/kg/injection, schedule: Q04DX003 (ip), vehicle: saline with Tween-80 109 % of control

CCOC(=O)/C(=C\c1ccccn1)C(=O)c1cccnc1
inactive: [4] 102 % of control | [5] 105 % of control | [6] 118 % of control

COc1ccc(N=Cc2ccccc2O)cc1
inactive: endpoint: mean survival time, dose: 100.0 mg/kg/injection, schedule: Q04DX003 (ip), vehicle: other 100 % of control | endpoint: mean survival time, dose: 200.0 mg/kg/injection, schedule: Q04DX003 (ip), vehicle: other 96 % of control | endpoint: mean survival time, dose: 400.0 mg/kg/injection, schedule: Q04DX003 (ip), vehicle: other 98 % of control

CC(C)NNC(=O)c1ccc(N)cc1
inactive: [8] 105 % of control | [9] 113 % of control | [15] 108 % of control

CCCCCCN(CCCCCC)CCC(=O)c1ccc2cc(Br)c3ccccc3c2c1
inactive: endpoint: mean survival time, dose: 13.3 mg/kg/injection, schedule: Q01DX Z (ip), vehicle: methylcellulose (MC) 92 % of control | endpoint: mean survival time, dose: 20.0 mg/kg/injection, schedule: Q01DX Z (ip), vehicle: methylcellulose (MC) 86 % of control | endpoint: mean survival time, dose: 30.0 mg/kg/injection, schedule: Q01DX Z (ip), vehicle: methylcellulose (MC) 92 % of control

CO[C@H]1C[C@H](O[C@H]2CC[C@]3(C=O)[C@H]4CC[C@]5(C)[C@@H](C6=CC(=O)OC6)CC[C@]5(O)[C@@H]4CC[C@]3(O)C2)O[C@H](C)[C@H]1O[C@@H]1O[C@H](CO)[C@@H](O)[C@H](O)[C@H]1O
inactive: endpoint: mean survival time, dose: 0.25 mg/kg/injection, schedule: Q01DX015 (ip), vehicle: carboxymethylcellulose (CMC) 88 % of control | endpoint: mean survival time, dose: 0.5 mg/kg/injection, schedule: Q01DX001 (ip), vehicle: saline 100 % of control | endpoint: mean survival time, dose: 0.5 mg/kg/injection, schedule: Q01DX015 (ip), vehicle: carboxymethylcellulose (CMC) 113 % of control | endpoint: mean survival time, dose: 0.5 mg/kg/injection, schedule: Q04DX003 (ip), vehicle: saline 100 % of control | endpoint: mean survival time, dose: 1.0 mg/kg/injection, schedule: Q01DX015 (ip), vehicle: carboxymethylcellulose (CMC) 89 % of control | endpoint: mean survival time, dose: 1.0 mg/kg/injection, schedule: Q04DX003 (ip), vehicle: saline 103 % of control | endpoint: mean survival time, dose: 2.0 mg/kg/injection, schedule: Q01DX015 (ip), vehicle: carboxymethylcellulose (CMC) 97 % of control | endpoint: mean survival time, dose: 4.0 mg/kg/injection, schedule: Q01DX001 (ip), vehicle: saline 98 % of control | endpoint: median survival time, dose: 0.5 mg/kg/injection, schedule: Q01DX005 (ip), vehicle: water 104 % of control | endpoint: median survival time, dose: 1.0 mg/kg/injection, schedule: Q01DX005 (ip), vehicle: water 103 % of control | endpoint: median survival time, dose: 2.0 mg/kg/injection, schedule: Q01DX005 (ip), vehicle: water 106 % of control

NC(=O)c1cn[nH]c1N1CC[N+](CCCl)=N1
inactive: endpoint: mean survival time, dose: 50.0 mg/kg/injection, schedule: Q01DX009 (ip), vehicle: saline 93 % of control | endpoint: mean survival time, dose: 100.0 mg/kg/injection, schedule: Q01DX009 (ip), vehicle: saline 103 % of control | [8] 103 % of control | endpoint: mean survival time, dose: 200.0 mg/kg/injection, schedule: Q01DX009 (ip), vehicle: saline 108 % of control | [9] 97 % of control

O=C(NC1CCCCC1)c1ccc(C(=O)NC2CCCCC2)cc1
inactive: [3] 94 % of control | [16] 102 % of control | [17] 91 % of control

Clc1ccc(/C=N\N2CCCCCC2)cc1
inactive: endpoint: mean survival time, dose: 100.0 mg/kg/injection, schedule: Q01DX001 (ip), vehicle: Klucel (hydroxypropylcellulose) (HPC) 105 % of control | endpoint: mean survival time, dose: 200.0 mg/kg/injection, schedule: Q01DX001 (ip), vehicle: Klucel (hydroxypropylcellulose) (HPC) 100 % of control | endpoint: mean survival time, dose: 400.0 mg/kg/injection, schedule: Q01DX001 (ip), vehicle: Klucel (hydroxypropylcellulose) (HPC) 98 % of control

CCCCC(CC)C1N(C)CCCN1C (stereo unspecified)
inactive: [7] 92 % of control | [18] 98 % of control

c1ccc(N2CNN(c3ccccc3)CN2)cc1
inactive: [12] 86 % of control | [13] 90 % of control | [14] 95 % of control

COC(=O)CNC(=O)C(Cc1ccc(O)cc1)NC(=O)OC(C)(C)C (stereo unspecified)
inactive: endpoint: mean survival time, dose: 50.0 mg/kg/injection, schedule: Q01DX005 (ip), vehicle: saline 95 % of control | endpoint: mean survival time, dose: 100.0 mg/kg/injection, schedule: Q01DX005 (ip), vehicle: saline 105 % of control | endpoint: mean survival time, dose: 200.0 mg/kg/injection, schedule: Q01DX005 (ip), vehicle: saline 96 % of control | endpoint: mean survival time, dose: 400.0 mg/kg/injection, schedule: Q01DX005 (ip), vehicle: saline 98 % of control

C[CH2][Ge]([CH2]C)[CH2]C.C[CH2][Ge]([CH2]C)[CH2]C
inactive: [10] 94 % of control | endpoint: mean survival time, dose: 100.0 mg/kg/injection, schedule: Q04DX002 (ip), vehicle: saline with Tween-80 95 % of control | [11] 90 % of control | endpoint: mean survival time, dose: 200.0 mg/kg/injection, schedule: Q04DX002 (ip), vehicle: saline with Tween-80 95 % of control | endpoint: mean survival time, dose: 400.0 mg/kg/injection, schedule: Q04DX002 (ip), vehicle: saline with Tween-80 92 % of control
